Assay results from patent publication US20260273028A1, “PEROXIDASE COMPOSITIONS CONTAINING IMPROVED ENHANCING AGENTS” (FLEN HEALTH PHARMA NV, priority 2022, published 2026).
Values belong to the compound of their own block, whether it stands above or below them.

How the values were obtained:
Lactoperoxidase = Lactoperoxidase (Bos taurus, UniProt P80025); assay: Lactoperoxidase (LPO) activity, spectrophotometric assay (ABTS); type: biochemical
Protocol: Lactoperoxidase is a member of the heme peroxidase family of enzymes that, together with a catalytic anion (such as I^−, derived from KI, present in the substrate), will catalyse the oxidation of H2O2, leading to hypojodite (IO^−). This hypojodite is a reactive oxygen species (ROS). To measure the enzymatic activity of LPO, a standard spectrophotometric assay is performed. In brief, H2O2 combined with 2,2′-azino-bis (3-ethylbenzothiazoline-6-sulfonzuur (ABTS) is catalysed by LPO so that the formation of a coloured compound is achieved that can in turn be measured by spectrophotometry. LPO was tested in 3 different concentrations, i.e., 50, 10 and 1 mg/ml. Each reaction mixture was tested in duplo. In the event LPO activity was evaluated in the presence of a potentiator candidate (=a molecule that might be able to augment the enzymatic activity of LPO), the latter was added in a low and high concentration ranging from 100 to 0.1 mg/ml. The blank consisted of the reaction mix in which H2O2 was absent. The absorbance was immediately measured with a plate reader (Spectramax ID3, Molecular Devices) every 12 seconds for 5 minutes at 20° C. For each combination evaluated, this test was repeated at least 2 times. Results were further analysed in MS Excel and expressed as U/g. Mean blank-corrected data±SD were plotted. Statistical significance compared to the combination without potentiator candidate (reference) was calculated using students' t-tests. Significance is achieved when the obtained p-value is lower than 0,05. Significance levels were defined as p<0.05=*; p<0.01=** and p<0.001=***.

[1] = test system: Staphylococcus aureus ATCC® 6538™; assay: MBC determination, broth microdilution with CFU enumeration; type: cell-based; settings: S. aureus
Protocol: (§1) The minimal bactericidal concentration (MBC) is defined as the lowest concentration of an antimicrobial agent that results in a complete killing of the microbial population (determined via standard CFU enumeration techniques) after overnight incubation. This endpoint measurement is used, together with the MIC (see above), to define the microbial susceptibility towards an antimicrobial agent. Here, the antimicrobial agent is a combination of the natural enzymes GOX+LPO.
(§2) To determine the MBC of the described combinations, a classical broth microdilution assay combined with standard CFU enumeration techniques was used to determine the susceptibility of a series of microbes commonly detected in infected wounds, including (a) the Gram-positive bacterium Staphylococcus aureus ATCC® 6538™ (results shown below), (b) the Gram-negative bacterium Pseudomonas aeruginosa ATCC®9027™ (results shown below), (c) the yeast Candida albicans ATCC®10231™ (results shown below), and (d) the fungus Aspergillus niger ATCC®16404™ (results shown below). In brief, the broth microdilution assay was set up as previously described (see 2.1). After incubation, the MBC was determined by investigating the presence of viable microorganisms at the MIC and following higher concentrations (MICx2, MICx4, and so on) using standard CFU enumeration techniques. For each combination evaluated, this test was repeated at least 5 times. The collected data were further analyzed in MS Excel. Mean concentration data (expressed as log CFU/ml) were visualized in a table format in which the MBC was highlighted.

[2] = test system: Candida albicans ATCC®10231™; assay: as above; type: cell-based; settings: C. albicans; enhancer 0.01%
Protocol: as §1, §2

[3] = test system: Candida albicans ATCC®10231™; assay: Absolute microbial counts in function of enzyme solution concentration; type: cell-based; settings: enhancer 0.01%; 0.005%-0.0000391% (v/v) GOX+LPO
MMP9 = assay: Direct neutralization of secreted MMP9 in cell culture supernatants, ELISA; type: biochemical; settings: isoleucine 0.05%; 3 h
Protocol: First, the effect on the secretion of these mediators by macrophages was evaluated. Secondly, the direct neutralization of already secreted mediators was evaluated. Both were measured by the state-of-the-art ELISA technique. Secondly, the direct neutralization of secreted pro-inflammatory mediator representatives IL-6, TNFa and MMP9 was measured in parallel. In brief, cell culture supernatants were collected after 48 h of macrophage differentiation and were centrifuged at 150 g for 5 min to remove cell debris. […] Treated supernatants were kept frozen until being processed for ELISA. IL-6, TNFa and MMP9 ELISA kits were purchased from BioTechne and the experiment was performed according to manufacturer's instructions. Briefly, 96-well plates were coated with capture antibodies overnight at room temperature. […] After several washing steps, the corresponding detection antibody, which is coupled to biotin, was incubated for 2 h. […] The reaction was stopped by the addition of sulphuric acid and absorbance at 450 nm was read with a plate reader. Absorbance is proportional to the concentration of analyte present in the medium, which was calculated based on a standard curve realized with recombinant IL-6, TNFa and MMP9.

LPO activity compared to reference (Lactoperoxidase; enhancer 0.1 mg/ml): significant increase
LPO activity compared to reference (Lactoperoxidase; enhancer 1 mg/ml): significant increase
Compound: NC(=O)C[C@H](N)C(=O)O [Asparagine, asparagine]

LPO activity compared to reference (Lactoperoxidase; enhancer 0.1 mg/ml): significant increase
LPO activity compared to reference (Lactoperoxidase; enhancer 1 mg/ml): significant increase
Compound: C[C@@H](O)[C@H](N)C(=O)O [Threonine, threonine]

Compound: N[C@@H](CO)C(=O)O [Serine, serine]
MBC: GOX+LPO enzyme solution needed ([1]; enhancer 0.0025%-0.00125%): 0.0000391 % (v/v)
increase in MBC compared to reference ([1]; enhancer 0.0025%-0.00125%): 4 ×
increase in MBC compared to the enhancing molecule guaiacol ([1]; enhancer 0.0025%-0.00125%): 2 ×
MBC: GOX+LPO enzyme solution needed ([1]; enhancer 10%-0.005%): 0.0000391 % (v/v)
increase in MBC compared to reference ([1]; enhancer 10%-0.005%): 4 ×
increase in MBC compared to the enhancing molecule guaiacol ([1]; enhancer 10%-0.005%): 2 ×
MBC: GOX+LPO enzyme solution needed [2]: 0.0000391 % (v/v)
increase in MBC compared to reference [2]: 4 ×
increase in MBC compared to the enhancing molecule guaiacol [2]: 2 ×
reduction in absolute C. albicans counts compared to reference and guaiacol solution [3]: stronger reduction
LPO activity compared to reference (Lactoperoxidase; enhancer 100 mg/ml, reference = no potentiator candidate): significant increase

Compound: NC(=O)CC[C@H](N)C(=O)O [Glutamine, glutamine]
MBC: GOX+LPO enzyme solution needed ([1]; enhancer 0.1%): 0.0000391 % (v/v)
increase in MBC compared to reference ([1]; enhancer 0.1%): 4 ×
increase in MBC compared to the enhancing molecule guaiacol ([1]; enhancer 0.1%): 2 ×
LPO activity compared to reference (Lactoperoxidase; enhancer 0.1 mg/ml): significant increase
LPO activity compared to reference (Lactoperoxidase; enhancer 1 mg/ml): significant increase

Compound: CC[C@H](C)[C@H](N)C(=O)O [Isoleucine, isoleucine]
MBC: GOX+LPO enzyme solution needed ([1]; enhancer 0.00125%): 0.0000391 % (v/v)
increase in MBC compared to reference ([1]; enhancer 0.00125%): 4 ×
increase in MBC compared to the enhancing molecule guaiacol ([1]; enhancer 0.00125%): 2 ×
MBC: GOX+LPO enzyme solution needed ([1]; enhancer 0.005%): 0.0000391 % (v/v)
increase in MBC compared to reference ([1]; enhancer 0.005%): 4 ×
increase in MBC compared to the enhancing molecule guaiacol ([1]; enhancer 0.005%): 2 ×
MBC: GOX+LPO enzyme solution needed [2]: 0.0000391 % (v/v)
increase in MBC compared to reference [2]: 4 ×
increase in MBC compared to the enhancing molecule guaiacol [2]: 2 ×
reduction in absolute C. albicans counts compared to reference and guaiacol solution [3]: stronger reduction
additional decrease of already secreted MMP9 (direct neutralization) vs GOX+LPO (1:1) alone (MMP9): 27.1%
